Source: US7763615B2, “Ecteinascidin analogs for use as antitumour agents” (priority 2001, dated 2010)
Values after ≈ are worked out from the molar mass of the structure shown. Like-named read-outs stand apart in the source and are kept apart here.

Columns and labels:
A498 = test: cells; type: cell-based; conditions: Homo sapiens; for CC50: A498, 48 h, read-out: LC50; for GI50 / IC (TGI): A498, 48 hours exposure, SRB
How it was run: (§1)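 Human tumour lines grown in RPMI 1640 with 10% FBS were seeded at 5×10^3 cells per well, left 18 hours to attach, then exposed to samples (10 to 10^−8 μg/ml) for 48 hours. Growth was quantified by sulphorhodamine B staining of TCA-fixed cells, with absorbance read at 490 nm.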

HT29 = test: cells; type: cell-based; conditions: Homo sapiens, HT-29, 48 h; for GI50 / IC (TGI): HT29, 48 hours exposure, SRB; for CC50: read-out: LC50, HT29, 48 hours exposure, SRB
How it was run: as §1

MB231 = test: cells; type: cell-based; conditions: Homo sapiens; for CC50: read-out: LC50; for IC (TGI): read-out: TGI
How it was run: as §1

SW-620 = test: cells; type: cell-based; conditions: Homo sapiens; for CC50: SW-620, 48 h, read-out: LC50; for IC (TGI) / GI50: SW-620, 48 hours exposure, SRB; for GI50: read-out: GI50
How it was run: as §1

MEL-28 = test: cells; type: cell-based; conditions: Homo sapiens, SK-MEL-28, 48 h; for GI50 / IC (TGI): MEL-28, 48 hours exposure, SRB; for CC50: read-out: LC50, MEL-28, 48 hours exposure, SRB
How it was run: as §1

A549 = test: cells; type: cell-based; conditions: Homo sapiens, A549, 48 h; for IC (TGI): read-out: TGI; for CC50: read-out: LC50, A549, 48 hours exposure, SRB
How it was run: as §1

MCF = test: cells; type: cell-based; conditions: Homo sapiens; for CC50: read-out: LC50; for IC (TGI): read-out: TGI
How it was run: as §1

DU145 = test: cells; type: cell-based; conditions: Homo sapiens, DU-145, 48 h; for GI50 / IC (TGI): DU145, 48 hours exposure, SRB; for CC50: read-out: LC50, DU145, 48 hours exposure, SRB
How it was run: as §1

[1] = system: L8, normal rat skeletal muscle cells; conditions: 24 h
[2] = s9, 60 min, 1 μM
CYP2D6 = CYP2D6 (Homo sapiens, UniProt P10635); test: in vitro; conditions: CYP2D6 (% inhibition)
Protocol: For CYP2D6 inhibition assay, the compound are tested at 10 μM in duplicate with a 0.25% final concentration of both methanol and acetonitrile in presence of the fluorescent substrate AMMC (3-[2-N,N-diethyl-N-methylammonium)ethyl]-7-methoxy-4-methylcoumarin) at the concentration of 1.5 μM). The conversion of the AMMC in AHMC (3-[2-N,N-diethyl-N-methylammonium)ethyl]-7-hydroxy-4-methylcoumarin) is determined spectrofluorimetry after incubation with the enzyme during 450 min at 37° C.
For both assays, the fluorescent intensity measured at t=0 is subtracted from that measured after the appropriate incubation time. The ratio of signal-to-noise is calculated by comparing the fluorescence in incubations containing the test compound to the control samples containing the same solvent vehicle. The percent of control activity is calculated and reported as percent inhibition.

[3] = system: H9c2 (2-1), normal rat cardiac muscle cells; conditions: 24 h
Protocol: (§2) In order to assess the cytotoxicity of the drugs to normal cells, we used 96 well plates plated at a density of 5000 cells per well (except for the FDC-P1 which were plated at 12,000 cells per well) with normal cell lines (ATCC, Table 1) maintained as per the directions of the ATCC: AML-12, normal mouse liver cells; NRK-52E, normal rat kidney cells; L8, normal rat skeletal muscle cells; FDC-P1, normal mouse myelogeous stem cells; and H9c2 (2-1), normal rat cardiac muscle cells. The cells in each plate were permitted to settle overnight before adding the test drug.
(§3) To each well (100 μl medium) 10 μl of drug in media was added at varying concentrations (1×10-10-0.01 mg/ml final concentration) and further incubated overnight at 37° C. with 5% CO2. After 24 h the following assays were performed. All experiments were repeated at least 3 times and were assayed in duplicate.
(§4) MTS assay (CellTiter 96 aqueous) was performed according to the manufacturer's (Promega) directions (for all cell types). Cell viability (mitochondrial activity) is determined via enzymatic conversion of the formazan substrate.

physchem [4] = conditions: pH 7.4, aqueous buffer, Solubility Dulbecco's PBS pH 7.4
in vitro = conditions: human, Caco-2
Description: The intestinal epithelium permeability is a critical characteristic that determines the rate and extent of human absorption and ultimately the bioavailability of a drug candidate. Caco-2 permeability assay allows a rapid assessment of membrane permeability and thus helps to rank-order compounds in terms of their absorption potential.
The Caco-2 cell line is a human colon adenocarcinoma cell line that differentiates in culture and resembles the epithelial lining of the human small intestine.
The apparent permeability coefficients (Papp) was determined in the apical-to-basolateral (A-to-B) direction across the cell monolayers (TC-7 sub-clone of the Caco-2) cultured on polycarbonate membrane filters. Compounds were tested at 50 μM with at a final DMSO concentration of 1%. Samples were analyzed by HPLC-MS or HPLC-MS/MS.
The test compound was added to the apical side and the Papp was determined based on the rate of appearance of the test compound in the basolateral side after 2 h-incubation. Two reference compounds, propranolol (highly permeable) and ranitidine (poorly permeable), are tested in each assay as controls.

[5] = system: NRK-52E, normal rat kidney cells; conditions: 24 h
CYP3A4 = CYP3A4 (Homo sapiens, UniProt P08684); test: in vitro; conditions: CYP3A4 (% inhibition)
[6] = system: AML-12, normal mouse liver cells; conditions: 24 h
Protocol: as §2, §3, §4

physchem [7] = conditions: pH 7.4, log D n-Octanol-Dulbecco's PBS pH 7.4
[8] = system: FDC-P1, normal mouse myelogeous stem cells; conditions: 24 h
(HEPG2) = conditions: human, 24 h, 30 μM
[9] = A549, 48 hours exposure, SRB, read-out: GI50

Sequence of CYP3A4 (P08684 whole entry): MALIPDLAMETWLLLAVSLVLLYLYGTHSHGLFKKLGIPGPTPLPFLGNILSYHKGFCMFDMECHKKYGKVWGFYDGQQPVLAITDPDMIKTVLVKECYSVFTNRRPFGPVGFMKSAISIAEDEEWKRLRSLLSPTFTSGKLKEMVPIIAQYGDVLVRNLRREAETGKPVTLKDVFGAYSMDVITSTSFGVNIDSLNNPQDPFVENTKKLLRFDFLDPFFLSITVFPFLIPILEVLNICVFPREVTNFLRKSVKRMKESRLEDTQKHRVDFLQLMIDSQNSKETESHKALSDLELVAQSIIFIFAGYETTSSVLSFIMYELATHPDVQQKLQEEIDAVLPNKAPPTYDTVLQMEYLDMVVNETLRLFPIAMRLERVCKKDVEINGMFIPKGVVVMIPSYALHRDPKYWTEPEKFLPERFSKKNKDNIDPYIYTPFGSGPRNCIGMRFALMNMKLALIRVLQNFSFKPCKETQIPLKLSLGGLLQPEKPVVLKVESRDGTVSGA
Sequence of CYP2D6 (P10635 whole entry): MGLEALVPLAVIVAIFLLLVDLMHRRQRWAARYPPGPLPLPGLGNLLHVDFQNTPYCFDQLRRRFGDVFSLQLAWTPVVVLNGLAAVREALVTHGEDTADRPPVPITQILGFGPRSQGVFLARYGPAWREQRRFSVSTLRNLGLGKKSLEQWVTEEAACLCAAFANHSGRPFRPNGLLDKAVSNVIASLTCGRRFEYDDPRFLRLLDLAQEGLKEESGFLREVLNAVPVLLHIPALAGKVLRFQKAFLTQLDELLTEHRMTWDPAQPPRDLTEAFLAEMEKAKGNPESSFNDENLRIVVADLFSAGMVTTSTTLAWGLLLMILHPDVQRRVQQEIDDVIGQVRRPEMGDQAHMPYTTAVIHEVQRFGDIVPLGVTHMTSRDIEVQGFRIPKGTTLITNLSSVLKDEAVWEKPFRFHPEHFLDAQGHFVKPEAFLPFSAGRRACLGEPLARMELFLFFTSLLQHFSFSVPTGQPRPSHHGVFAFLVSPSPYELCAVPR

| Compound | CC50 (A498) | GI50 (A498) | IC (TGI) (A498) | GI50 (HT29) | IC (TGI) (HT29) | CC50 (HT29) | CC50 (MB231; 48 h) | GI50 (MB231; MB231, 48 hours exposure, SRB) | CC50 (SW-620) | IC (TGI) (SW-620) | GI50 (SW-620) | GI50 (MEL-28) | IC (TGI) (MEL-28) | CC50 (MEL-28) | CC50 (A549) | CC50 (MCF; 48 h) | GI50 (MCF; MCF, 48 hours exposure, SRB) | GI50 (DU145) | IC (TGI) (DU145) | CC50 (DU145) | also measured |
| --- | --- | --- | --- | --- | --- | --- | --- | --- | --- | --- | --- | --- | --- | --- | --- | --- | --- | --- | --- | --- | --- |
| COc1ccc2[nH]c3c(c2c1)CCN[C@]31CS[C@@H]2c3c(OC(C)=O)c(C)c4c(c3[C@H](COCC1=O)N1C2[C@H]2c3c(cc(C)c(OC)c3O)C[C@@H]([C@@H]1O)N2C)OCO4 (stereo partly shown) [Compound 27] | 1.27 nM | 0.255 nM | 0.51 nM | 0.255 nM | 0.764 nM | 1.15 nM | 12.7 nM | 0.255 nM | 1.15 nM | 0.637 nM | 0.255 nM | 0.255 nM | 0.637 nM | 1.27 nM | 6.37 nM | 11.5 nM | 0.255 nM | 0.0255 nM | 0.0892 nM | 3.82 nM | IC (TGI) (MB231; MB231, 48 hours exposure, SRB): 6.37 nM; GI50 (A549; [9]): 0.255 nM; IC (TGI) (A549; A549, 48 hours exposure, SRB): 0.892 nM; IC (TGI) (MCF; 48 h): 1.27 nM; Skeletal [1]: 1.54E−08; Human Liver S9 Metabolic Stability (% remaining) [2]: 7 % remaining; inhibition at 450 min, 10 µM (CYP2D6): 13%; Heart [3]: 9.93E−08; solubility (physchem [4]): 2.99 µM (≈ 2.39 µg/mL); Papp A→B at 2 h, 50 μM (in vitro): < 1.18 ×10⁻⁶ cm/s; Kidney [5]: 1.01E−08; inhibition at 30 min, 10 µM (CYP3A4): 53%; Liver [6]: 1.48E−08; logD at 60 min (physchem [7]): > 5; Myelo [8]: 1.75E−08 |
| COc1c(C)cc2c(c1O)[C@@H]1C3[C@@H]4SC[C@]5(NCCc6c5[nH]c5ccc(OCc7ccccc7)cc65)C(=O)COC[C@@H](c5c6c(c(C)c(OC(C)=O)c54)OCO6)N3[C@@H](O)[C@H](C2)N1C (stereo partly shown) [Compound 29] | 116 nM | 3.48 nM | 11.6 nM | 23.2 nM | 69.7 nM | 105 nM | 116 nM | 23.2 nM | 105 nM | 69.7 nM | 23.2 nM | 23.2 nM | 34.8 nM | 81.3 nM | 92.9 nM | 116 nM | 23.2 nM | 23.2 nM | 34.8 nM | 92.9 nM | IC (TGI) (MB231; MB231, 48 hours exposure, SRB): 46.5 nM; GI50 (A549; [9]): 23.2 nM; IC (TGI) (A549; A549, 48 hours exposure, SRB): 34.8 nM; IC (TGI) (MCF; MCF, 48 hours exposure, SRB): 34.8 nM; Skeletal [1]: 3.29E−07; Human Liver S9 Metabolic Stability (% remaining) [2]: 9 % remaining; inhibition at 450 min, 10 µM (CYP2D6): 27%; Heart [3]: 7.22E−08; solubility (physchem [4]): 1.59 µM (≈ 1.39 µg/mL); Kidney [5]: 1.94E−08; inhibition at 30 min, 10 µM (CYP3A4): 55%; Cell Viability (% inhibition) ((HEPG2)): 29 % inhibition; Liver [6]: 1.59E−08; logD at 60 min (physchem [7]): > 4.9; Myelo [8]: 1.79E−08 |
| COc1c(C)cc2c(c1O)[C@@H]1C3[C@@H]4SC[C@]5(NCCc6c5[nH]c5ccc(O)cc65)C(=O)COC[C@@H](c5c6c(c(C)c(OC(C)=O)c54)OCO6)N3[C@@H](O)[C@H](C2)N1C (stereo partly shown) [Compound 31] | 13 nM | 2.59 nM | 6.49 nM | 3.89 nM | 7.78 nM | 13 nM | 13 nM | 1.3 nM | 11.7 nM | 3.89 nM | 2.59 nM | 2.59 nM | 3.89 nM | 10.4 nM | 38.9 nM | 11.7 nM | 2.59 nM | 1.3 nM | 3.89 nM | 9.08 nM | IC (TGI) (MB231; MB231, 48 hours exposure, SRB): 5.19 nM; GI50 (A549; [9]): 2.59 nM; IC (TGI) (A549; A549, 48 hours exposure, SRB): 5.19 nM; IC (TGI) (MCF; MCF, 48 hours exposure, SRB): 5.19 nM; Skeletal [1]: 1.35E−08; Human Liver S9 Metabolic Stability (% remaining) [2]: 17 % remaining; Heart [3]: 6.65E−08; solubility (physchem [4]): 18.3 µM (≈ 14.3 µg/mL); Papp A→B at 2 h, 50 μM (in vitro): < 0.32 ×10⁻⁶ cm/s; Kidney [5]: 4.27E−08; inhibition at 30 min, 10 µM (CYP3A4): 84%; Cell Viability (% inhibition) ((HEPG2)): 22 % inhibition; Liver [6]: 1.89E−08; logD at 60 min (physchem [7]): 3.61; Myelo [8]: 3.18E−08 |
| COc1c(C)cc2c(c1O)[C@@H]1C3[C@@H]4SC[C@]5(NCCc6c5[nH]c5cc(F)ccc65)C(=O)COC[C@@H](c5c6c(c(C)c(OC(C)=O)c54)OCO6)N3[C@@H](O)[C@H](C2)N1C (stereo partly shown) [Compound 32] | 51.7 nM | 2.59 nM | 9.06 nM | 7.76 nM | 25.9 nM | 103 nM | 90.6 nM | 2.59 nM | 129 nM | 25.9 nM | 5.17 nM | 2.59 nM | 10.3 nM | 25.9 nM | 90.6 nM | 129 nM | 9.06 nM | 1.29 nM | 2.59 nM | 3.88 nM | IC (TGI) (MB231; MB231, 48 hours exposure, SRB): 9.06 nM; GI50 (A549): 3.88 nM; IC (TGI) (A549; A549, 48 hours exposure, SRB): 25.9 nM; IC (TGI) (MCF; MCF, 48 hours exposure, SRB): 25.9 nM; Skeletal [1]: 1.51E−08; Human Liver S9 Metabolic Stability (% remaining) [2]: 9 % remaining; inhibition at 450 min, 10 µM (CYP2D6): 12%; Heart [3]: 2.42E−07; solubility (physchem [4]): 14.3 µM (≈ 11.2 µg/mL); Kidney [5]: 1.45E−07; inhibition at 30 min, 10 µM (CYP3A4): 83%; Cell Viability (% inhibition) ((HEPG2)): 39 % inhibition; Liver [6]: 6.00E−07; logD at 60 min (physchem [7]): > 4.3; Myelo [8]: 5.25E−07 |
| COc1c(C)cc2c(c1O)[C@@H]1C3[C@@H]4SC[C@]5(C(=O)COC[C@@H](c6c7c(c(C)c(OC(C)=O)c64)OCO7)N3[C@@H](O)[C@H](C2)N1C)c1[nH]c2ccc(O)cc2c1CCN5C (stereo partly shown) [Compound 33] | 1.27 nM | 0.255 nM | 0.51 nM | 0.255 nM | 0.764 nM | 1.15 nM | 12.7 nM | 0.255 nM | 10.2 nM | 1.15 nM | 0.255 nM | 0.255 nM | 0.637 nM | 1.15 nM | 5.1 nM | 11.5 nM | 1.02 nM | 0.382 nM | 0.892 nM | 3.82 nM | IC (TGI) (MB231; 48 h): 1.27 nM; GI50 (A549; [9]): 0.382 nM; IC (TGI) (A549): 1.27 nM; IC (TGI) (MCF; MCF, 48 hours exposure, SRB): 2.55 nM; Skeletal [1]: 1.41E−08; Human Liver S9 Metabolic Stability (% remaining) [2]: 10 % remaining; inhibition at 450 min, 10 µM (CYP2D6): 28%; Heart [3]: 1.27E−06; solubility (physchem [4]): 68.9 µM (≈ 55.1 µg/mL); Papp A→B at 2 h, 50 μM (in vitro): 7.77 ×10⁻⁶ cm/s; Kidney [5]: 7.78E−09; inhibition at 30 min, 10 µM (CYP3A4): 84%; Cell Viability (% inhibition) ((HEPG2)): 32 % inhibition; Liver [6]: 1.05E−08; logD at 60 min (physchem [7]): 3.5; Myelo [8]: 1.92E−08 |
| CC(C)NCC(O)COc1cccc2ccccc12 (stereo not shown) [propranolol, reference compound] | – | – | – | – | – | – | – | – | – | – | – | – | – | – | – | – | – | – | – | – | Papp A→B at 2 h, 50 μM (in vitro): > 20 ×10⁻⁶ cm/s |
| CNC(=C[N+](=O)[O-])NCCSCc1ccc(CN(C)C)o1 [ranitidine, reference compound] | – | – | – | – | – | – | – | – | – | – | – | – | – | – | – | – | – | – | – | – | Papp A→B at 2 h, 50 μM (in vitro): < 5 ×10⁻⁶ cm/s |
